Test results published in patent US20040077697A1, “2-Acylaminothiazole derivative or its salt” (priority 2001, published 2004).

Experiments:
human CD34+ cell = assay: Megakaryocyte colony formation promoting action; assay type: cell-based; details: MegaCult-C, 10 to 14 days, colonies per well, average of three
Experimental: <Megakaryocyte Colony Formation Promoting Action>
A human CD34^+ cell was cultured at 37° C. for 10 to 14 days in the presence of a test compound in a 2-well chamber slide by using MegaCult™-C (produced by StemCell Technologies). According to the manufacturer's instructions, the slide was dehydrated, fixed, and then stained with an anti-glycoprotein IIb/IIIa antibody. A colony containing three or more of the glycoprotein IIb/IIIa positive megakaryocyte cells was defined as one colony, and the number of colonies per well was microscopically measured. The assay was replicated thrice, and an average value was evaluated as the number of megakaryocyte colonies.

Row | melting point | SMILES | Number of megakaryocyte colonies (human CD34+ cell; test compound 0.3 μM) | Number of megakaryocyte colonies (human CD34+ cell; test compound 1.0 μM) | Number of megakaryocyte colonies (human CD34+ cell; test compound 3.0 μM)
1 | 169 to 172 °C | COc1cc(OC)cc(C(=O)Nc2nc(-c3ccccc3)c(N3CCOCC3)s2)c1.Cl |  |  | 
2 | 263 to 266 °C | COc1cc(C(=O)Nc2nc(-c3ccc(F)cc3)c(N3CCN(C4CCCCC4)CC3)s2)ccn1 [Example 2, N-[5-(4-cyclohexylpiperazin-1-yl)-4-(4-fluorophenyl)thiazol-2-yl]-2-methoxyi sonicotinamide] | 5.2 | 19.0 | 34.8
3 | 270 to 272 °C (dec.) | Cl.O=C(Nc1nc(-c2ccc(F)cc2)c(N2CCN(C3CCCCC3)CC2)s1)c1ccc(O)c(Cl)c1 |  |  | 
